Test results as given in patent publication US20220264878A1, “HERBICIDAL COMPOSITION CONTAINING R-TYPE PYRIDYLOXY CARBOXYLIC ACID DERIVATIVE AND USE THEREOF” (Qingdao Kingagroot Chemical Compound Co., Ltd., priority 2019, published 2022).
Read-outs that look alike come from different tables or passages of the source.

How the values were obtained:
Echinochloa oryzoides = assay: Post-emergence foliage spray, pot culture, fresh weight inhibition (Tables 1-48, 51-98, 101-148; 24 days); format: in vivo
Experimental: (§1) The above weeds were cultivated by a pot culture method. […] Full and uniform weed seeds were selected, soaked in warm water at 25° C. for 6 hours, and germinated in a 28° C. biochemical incubator (darkness). The weed seeds that had just germinatedwere evenly placed on the surface of the soil and then covered with 0.5-1 cm soil according to the sizes of seeds.
(§2) The technical materials were all dissolved in acetone, and diluted with an aqueous solution containing 0.1% emulsifier Tween-80. The dilution is performed as required.
(§3) A ratio of the active ingredient A to the active ingredient B and amounts thereof in each group depends on the characteristics and toxicity of the two agents, as well as the main application purpose of a corresponding formulation. Based on the pre-tests in this study, the dosage of the active ingredient A and B applied alone and in combination were shown in the tables. Water containing the solvent and emulsifier same with the above groups but free of the agents was used as a blank control.
(§4) In the stage of weeds with 3˜4 leaves, the weeds were thinned out to maintain 15 weeds per pot and 45 weeds for each treatment, then continued to be cultured to 5˜6 leaves stage of grassy weeds, 6˜7 leaves stage of broadleaf weeds, and treated.
(§5) The well-cultured weeds were evenly placed on a platform with an area of 0.5 m^2, and a solution of agents was sprayed on the stems and leaves thereof by the 3WP-2000-type walking spray tower at a dosage of 450 kg/ha and at a spray pressure of 0.3 MPa. After all the solution was sprayed, the valve was closed. After 30 seconds, the door of the spray tower was opened, and the nutritional bowl was taken out. Then the valve was opened, and the spray tube was cleaned by spraying 50 ml of water.
(§6) A pot-culture method was employed. For the cultivation of weeds, please refer to the Section 1.1), and “Pesticide guidelines for laboratory bioactivity tests—herbicides”. As to a method for applying agents, please refer to the section 2.3.2), that is, a foliage treatment was employed. After the treatment, the weeds were routinely cultured in a greenhouse.
(§7) A method for investigating absolute number was employed, wherein whole seedlings of survival weeds were cut off with a blade along the soil surface, and the fresh weight of the weeds was weighed with an analytical balance. For dead weeds, the fresh weight thereof was zero.
(§8) Wherein, in the formula, X represented the fresh weight inhibition rate of the active ingredient A in a dosage of P, and Y represented the fresh weight inhibition rate of the active ingredient B in a dosage of Q.

Echinochloa caudate = assay: as above; format: in vivo
Experimental: as §1, §2, §3, §4, §5, §6, §7, §8

[1] = Echinochloa oryzoides, 576 h, read-out: Control effect (%) of B applied alone in corresponding dose
[2] = Echinochloa, 576 h, read-out: Control effect (%) of B applied alone in corresponding dose

With `CCCCOC(=O)[C@@H](C)Oc1ccc(Oc2ccc(C(F)(F)F)cn2)cc1` [fluazifop-P-butyl] the “Control effect (%) of B applied alone in corresponding dose” value (“Control effect (%) of B applied alone” below) (Echinochloa oryzoides; B 3.75 g a.i./ha) was 5.5%, the “Control effect (%) of B applied alone” value (Echinochloa oryzoides; B 7.5 g a.i./ha) was 14.2% and the “Control effect (%) of B applied alone” value (Echinochloa oryzoides; B 15 g a.i./ha) was 32.9%. The “Control effect (%) of B applied alone” value (Echinochloa oryzoides; B 30 g a.i./ha) was 71.5%, the “Control effect (%) of B applied alone” value (Echinochloa caudate; fluazifop-P-butyl 3.75 g a.i./ha) was 4.2% and the “Control effect (%) of B applied alone” value (Echinochloa caudate; fluazifop-P-butyl 7.5 g a.i./ha) was 13.9%. The “Control effect (%) of B applied alone” value (Echinochloa caudate; fluazifop-P-butyl 15 g a.i./ha) was 38.4% and the “Control effect (%) of B applied alone” value (Echinochloa caudate; fluazifop-P-butyl 30 g a.i./ha) was 74.1%.

`COC(=O)[C@@H](C)Oc1ccc(Oc2ncc(C(F)(F)F)cc2Cl)cc1` [haloxyfop-P-methyl] was tested, and the “Control effect (%) of B applied alone” value (Echinochloa oryzoides; B 3.75 g a.i./ha) was 7.9%, the “Control effect (%) of B applied alone” value (Echinochloa oryzoides; B 7.5 g a.i./ha) was 19.0% and the “Control effect (%) of B applied alone” value (Echinochloa oryzoides; B 15 g a.i./ha) was 30.4%. The “Control effect (%) of B applied alone” value (Echinochloa oryzoides; B 30 g a.i./ha) was 66.9%, the “Control effect (%) of B applied alone” value (Echinochloa caudate; haloxyfop-P-methyl 3.75 g a.i./ha) was 3.0% and the “Control effect (%) of B applied alone” value (Echinochloa caudate; haloxyfop-P-methyl 7.5 g a.i./ha) was 15.6%. For the same compound, the “Control effect (%) of B applied alone” value (Echinochloa caudate; haloxyfop-P-methyl 15 g a.i./ha) was 40.2% and the “Control effect (%) of B applied alone” value (Echinochloa caudate; haloxyfop-P-methyl 30 g a.i./ha) was 73.4%.

`CS(=O)(=O)c1cc(C(F)(F)F)ccc1C(=O)c1cnoc1C1CC1` [isoxaflutole] was tested, and the pest or weed control at 7.5 g/ha (Echinochloa oryzoides; Echinochloa oryzoides, 576 h, B 7.5 g a.i./ha, read-out: Control effect (%) of B applied alone in corresponding dose) was 8.1%, the pest or weed control at 15 g/ha (Echinochloa oryzoides; Echinochloa oryzoides, 576 h, B 15 g a.i./ha, read-out: Control effect (%) of B applied alone in corresponding dose) was 19.6% and the pest or weed control at 30 g/ha (Echinochloa oryzoides; Echinochloa oryzoides, 576 h, B 30 g a.i./ha, read-out: Control effect (%) of B applied alone in corresponding dose) was 50.6%. It also gave a pest or weed control at 60 g/ha (Echinochloa oryzoides; Echinochloa oryzoides, 576 h, B 60 g a.i./ha, read-out: Control effect (%) of B applied alone in corresponding dose) of 65.5%, a pest or weed control at 7.5 g/ha (Echinochloa caudate; Echinochloa, 576 h, Table 85, 7.5 g a.i./ha, read-out: Control effect (%) of B applied alone in corresponding dose) of 2.1% and a pest or weed control at 15 g/ha (Echinochloa caudate; Echinochloa, 576 h, Table 85, 15 g a.i./ha, read-out: Control effect (%) of B applied alone in corresponding dose) of 14.3%. The pest or weed control at 30 g/ha (Echinochloa caudate; Echinochloa, 576 h, Table 85, 30 g a.i./ha, read-out: Control effect (%) of B applied alone in corresponding dose) was 47.9% and the pest or weed control at 60 g/ha (Echinochloa caudate; Echinochloa, 576 h, Table 85, 60 g a.i./ha, read-out: Control effect (%) of B applied alone in corresponding dose) was 63.6%.

With `CCC(=O)Nc1ccc(Cl)c(Cl)c1` [propanil] the pest or weed control at 75 g/ha (Echinochloa oryzoides; Echinochloa oryzoides, 576 h, B 75 g a.i./ha, read-out: Control effect (%) of B applied alone in corresponding dose) was 7.6%, the pest or weed control at 150 g/ha (Echinochloa oryzoides; Echinochloa oryzoides, 576 h, B 150 g a.i./ha, read-out: Control effect (%) of B applied alone in corresponding dose) was 19.9% and the pest or weed control at 300 g/ha (Echinochloa oryzoides; Echinochloa oryzoides, 576 h, B 300 g a.i./ha, read-out: Control effect (%) of B applied alone in corresponding dose) was 37%. It also gave a pest or weed control at 600 g/ha (Echinochloa oryzoides; Echinochloa oryzoides, 576 h, B 600 g a.i./ha, read-out: Control effect (%) of B applied alone in corresponding dose) of 53.9%, a pest or weed control at 75 g/ha (Echinochloa caudate; Echinochloa, 576 h, propanil 75 g a.i./ha, read-out: Control effect (%) of B applied alone in corresponding dose) of 3.8% and a pest or weed control at 150 g/ha (Echinochloa caudate; Echinochloa, 576 h, propanil 150 g a.i./ha, read-out: Control effect (%) of B applied alone in corresponding dose) of 21.1%. The pest or weed control at 300 g/ha (Echinochloa caudate; Echinochloa, 576 h, propanil 300 g a.i./ha, read-out: Control effect (%) of B applied alone in corresponding dose) was 36.4% and the pest or weed control at 600 g/ha (Echinochloa caudate; Echinochloa, 576 h, propanil 600 g a.i./ha, read-out: Control effect (%) of B applied alone in corresponding dose) was 52.5%.

For `COC(=O)[C@@H](C)Oc1ccc(Oc2cnc3cc(Cl)ccc3n2)cc1` [quizalofop-P-methyl], the “Control effect (%) of B applied alone” value (Echinochloa oryzoides; B 3.75 g a.i./ha) was 5.9%, the “Control effect (%) of B applied alone” value (Echinochloa oryzoides; B 7.5 g a.i./ha) was 14.6% and the “Control effect (%) of B applied alone” value (Echinochloa oryzoides; B 15 g a.i./ha) was 38.6%. The “Control effect (%) of B applied alone” value (Echinochloa oryzoides; B 30 g a.i./ha) was 63.3%, the “Control effect (%) of B applied alone” value (Echinochloa caudate; quizalofop-P-methyl 3.75 g a.i./ha) was 3.4% and the “Control effect (%) of B applied alone” value (Echinochloa caudate; quizalofop-P-methyl 7.5 g a.i./ha) was 12.2%. The “Control effect (%) of B applied alone” value (Echinochloa caudate; quizalofop-P-methyl 15 g a.i./ha) was 40.8% and the “Control effect (%) of B applied alone” value (Echinochloa caudate; quizalofop-P-methyl 30 g a.i./ha) was 72.1%.

For `CCC/C(=N\OCC)C1=C(O)CC(CC(C)SCC)CC1=O` (centres unmarked) [sethoxydim], the pest or weed control at 15 g/ha (Echinochloa oryzoides; [1]) was 5.5%, the pest or weed control at 30 g/ha (Echinochloa oryzoides; [1]) was 13.8% and the pest or weed control at 60 g/ha (Echinochloa oryzoides; [1]) was 35.4%. The pest or weed control at 120 g/ha (Echinochloa oryzoides; [1]) was 68.4%, the pest or weed control at 15 g/ha (Echinochloa caudate; [2]) was 5.1% and the pest or weed control at 30 g/ha (Echinochloa caudate; [2]) was 21.5%. It also gave a pest or weed control at 60 g/ha (Echinochloa caudate; [2]) of 42.6% and a pest or weed control at 120 g/ha (Echinochloa caudate; [2]) of 61.6%.

`COC(=O)c1ccccc1S(=O)(=O)NC(=O)Nc1nc(C)cc(C)n1` [sulfometuron-methyl] showed a pest or weed control at 9.375 g/ha (Echinochloa oryzoides; [1]) of 3.2%, a pest or weed control at 18.75 g/ha (Echinochloa oryzoides; [1]) of 12.6% and a pest or weed control at 37.5 g/ha (Echinochloa oryzoides; [1]) of 38%. For the same compound, the pest or weed control at 75 g/ha (Echinochloa oryzoides; [1]) was 53.8%, the pest or weed control at 9.375 g/ha (Echinochloa caudate; [2]) was 3.8% and the pest or weed control at 18.75 g/ha (Echinochloa caudate; [2]) was 13.9%. For the same compound, the pest or weed control at 37.5 g/ha (Echinochloa caudate; [2]) was 24.6% and the pest or weed control at 75 g/ha (Echinochloa caudate; [2]) was 52.7%.
